Laboratory results taken from the supplement of paper PMC5908809.

Assays:
[1] = test system: normal primary NK cells, pool 2 (3 donors) (IL-2 2.5 ng/mL); assay: percent inhibition of viability; higher = more inhibition; conditions: 72 h
[2] = test system: normal primary NK cells, pool 3 (3 donors) (IL-2 2.5 ng/mL); assay: as above; conditions: 72 h
IMC-1 (IL-2 20 ng/mL) [3] = assay: as above; conditions: 72 h
[4] = test system: normal NK cells expanded with K562-aAPC; assay: as above; conditions: 72 h, IL-2 2.5 ng/mL
Protocol: (§1)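 Drug sensitivity and resistance testing on K562-aAPC-expanded normal NK cells: 5 concentrations (10-fold steps over a 10,000-fold range), 72 h at 37 °C, viability by CellTiter-Glo normalised to DMSO and benzethonium chloride controls; DSS from the fitted curve.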

[5] = test system: normal NK cells expanded with K562-aAPC; assay: drug sensitivity score (DSS) (DSS units); higher = more sensitive; extreme values may be limits of the assay; conditions: 72 h; IL-2 2.5 ng/mL
Protocol: as §1

[6] = test system: normal primary NK cells, pool 2 (3 donors) (IL-2 2.5 ng/mL); assay: as above; conditions: 72 h
[7] = test system: normal primary NK cells, pool 3 (3 donors) (IL-2 2.5 ng/mL); assay: as above; conditions: 72 h
IMC-1 (IL-2 20 ng/mL) [8] = assay: as above; conditions: 72 h

CCN(CC)CCCC(C)Nc1ccnc2cc(Cl)ccc12 (stereo not drawn) [Chloroquine] (max concentration tested 100000 nM)
percent inhibition of viability [%]
Conditions	10 nM	100 nM	1000 nM	10000 nM	100000 nM
IMC-1 (IL-2 20 ng/mL) [3]	-9.53	-2.15	-3.29	-3.07	99.8
[1]	-5.74	2.44	3.84	28.9	101
[2]	-6.29	3.82	7.92	52.1	101
[4]	-7.98	-8.65	-3.82	76	101

Conditions	drug sensitivity score
IMC-1 (IL-2 20 ng/mL) [8]	5.31
[5]	14.2
[6]	9.79
[7]	11.8

N.N.[Cl][Pt][Cl] [Cisplatin] (max concentration tested 100000 nM)
percent inhibition of viability [%]
Conditions	10 nM	100 nM	1000 nM	10000 nM	100000 nM
IMC-1 (IL-2 20 ng/mL) [3]	0.88	-0.16	84.2	100	100
[1]	-10.5	-3.22	-1.72	25.3	92.7
[2]	-4.27	1.37	-2.08	24	96.7
[4]	2.08	1.39	16.1	62.8	99.8

Conditions	drug sensitivity score
IMC-1 (IL-2 20 ng/mL) [8]	27.8
[5]	14.1
[6]	8.93
[7]	9.04

CON(C)C(=O)N1N=C(c2cc(F)ccc2F)S[C@@]1(CCCN)c1ccccc1 [Filanesib] (max concentration tested 1000 nM)
percent inhibition of viability [%]
Conditions	0.1 nM	1 nM	10 nM	100 nM	1000 nM
IMC-1 (IL-2 20 ng/mL) [3]	0.48	0.61	99.5	100	99.5
[1]	-10.4	4.01	3.31	2.78	0.91
[2]	-8.61	0.04	1.29	2.17	-3.73
[4]	5.43	2.85	56.5	56.8	56.8

Conditions	drug sensitivity score
IMC-1 (IL-2 20 ng/mL) [8]	30.5
[5]	18.2
[6]	0
[7]	0

CC(C)n1nc(-c2ccc3oc(N)nc3c2)c2c(N)ncnc21 [MLN-0128] (max concentration tested 1000 nM)
percent inhibition of viability [%]
Conditions	0.1 nM	1 nM	10 nM	100 nM	1000 nM
IMC-1 (IL-2 20 ng/mL) [3]	-2.42	-1.34	-16.7	-30.3	19.6
[1]	-8.27	4.32	23.5	28	36.7
[2]	-6.15	0.85	15.6	13.5	35.5
[4]	-6.08	-1.99	18	40.5	44.1

Conditions	drug sensitivity score
IMC-1 (IL-2 20 ng/mL) [8]	0.2
[5]	9.64
[6]	8.27
[7]	3.64

CCCCCCCCCCCCCCCCCCOP(=O)([O-])OC1CC[N+](C)(C)CC1 [Perifosine] (max concentration tested 2500 nM)
percent inhibition of viability [%]
Conditions	0.25 nM	2.5 nM	25 nM	250 nM	2500 nM
IMC-1 (IL-2 20 ng/mL) [3]	-3.43	-7.43	0.31	2.67	10.9
[1]	-4.58	-3.48	-0.26	4.53	7.26
[2]	-6.26	-5.2	0.44	3.24	9.26
[4]	-10.4	-4.12	-6.08	9.36	14

Conditions	drug sensitivity score
IMC-1 (IL-2 20 ng/mL) [8]	0.06
[5]	0.73
[6]	0
[7]	0

c1cc(CN2CCCNCCNCCCNCC2)ccc1CN1CCCNCCNCCCNCC1 [Plerixafor] (max concentration tested 10000 nM)
percent inhibition of viability [%]
Conditions	1 nM	10 nM	100 nM	1000 nM	10000 nM
IMC-1 (IL-2 20 ng/mL) [3]	-6.62	-2.25	-2.63	-6.11	12
[1]	-13.2	-6.73	-6.7	-15	-10.7
[2]	-11.8	-3.1	-2.77	-16.3	-17.5
[4]	-8.84	-11.8	-6.04	-7.74	-11.7

Conditions	drug sensitivity score
IMC-1 (IL-2 20 ng/mL) [8]	0.01
[5]	0
[6]	0
[7]	0

CCN(c1cc(-c2ccc(CN3CCOCC3)cc2)cc(C(=O)NCc2c(C)cc(C)[nH]c2=O)c1C)C1CCOCC1 [Tazemetostat] (max concentration tested 10000 nM)
percent inhibition of viability [%]
Conditions	1 nM	10 nM	100 nM	1000 nM	10000 nM
IMC-1 (IL-2 20 ng/mL) [3]	-6.56	0.55	-2.13	1.66	2.45
[1]	-7.19	-1.07	5.71	-5.28	7.6
[2]	-4.31	-2.24	8.29	-7.9	0.75
[4]	-1.54	2.17	-0.28	10.4	0.84

Conditions	drug sensitivity score
IMC-1 (IL-2 20 ng/mL) [8]	0
[5]	0
[6]	0
[7]	0
